In series [1] the test system is Human HelaM cells. The series is described as follows: Cytotoxicity MTT assay (TOX HELAM). The series is classed as cell-based. To be noted: 72 hours. An outline of the steps: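 HelaM cells exposed to compound, typically 25 to 0.8 μM, 0.5% DMSO, for 72 hours at 37° C. Viability by MTT reduction, absorbance 540 nm minus 690 nm; CC50 is concentration giving 50% reduction in viability.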
(Tetrazolium dyes change colour on reduction, which living cells bring about.)

Series [2] concerns Staphylococcus aureus ATCC 29213. The series is described as follows: Antibacterial susceptibility testing: IC90 determination (STA). The series is classed as cell-based. To be noted: STA ATCC 29213, 90% inhibitory concentration for bacterial growth. An outline of the steps:
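Broth microdilution in Mueller-Hinton broth, two-fold compound dilutions (typically 63–0.49 μM), 5×10^5 CFU/ml inoculum, 1.25% DMSO final. Incubated 16–20 h at 35 °C; growth read fluorometrically after resazurin (ex 540/em 590 nm). IC90 in μg/ml = concentration giving 90% growth inhibition.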

The nature of series [3]: In vivo pharmacokinetic and oral bioavailability. To be noted: male Swiss mice. As for the experimental part: The in vivo pharmacokinetics and oral bioavailability of the compound of the examples was/is investigated in male Swiss mice (fed) following single intravenous (i.v.) bolus and oral (p.o.) administration. For the i.v. and p.o. solution formulations, the compound was/is dissolved in a 20% HP-β-CD solution. The pH of the formulations was/is around pH 4. All i.v. formulations were isotonic.

For series [4], the system named is S. aureus. The series is described as follows: Antibacterial susceptibility testing: IC90 determination with 10% human serum (STA + 10% HS). The series is classed as cell-based, Staphylococcus aureus. Particulars: human serum at a final concentration of 10%. Put shortly: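 S. aureus ATCC 29213 was grown in Mueller-Hinton broth with 10% human serum by broth microdilution at 5×10^5 CFU/ml, with 1.25% DMSO and two-fold compound dilutions (typically 63–0.49 μM), for 16-20 h at 35° C. Growth was read by resazurin fluorescence (ex 540/em 590 nm). IC90 is the 90% growth-inhibitory concentration, in μg/ml.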

One may read the Cmax as the maximum level reached in the sampled fluid or tissue. The Tmax is the time at which the peak concentration occurs. For the compound `O=C1CCc2cc(/C=C/C(=O)N3C[C@@H]4CC(c5ccccc5)=C[C@@H]4C3)cnc2N1` (single isomer, unassigned) [compound 14], the “TOX HELAM (222.125) CC50” value in series [1] is greater than 9.683 µg/mL. Besides, the “STA (361.159) IC90” value in series [2] was found to be 0.19 µg/mL. Further, in series [3] (i.v. 2.5 mg/kg), the AUC0-inf is 7464 ng·h/mL, the “Half life (t1/2)” value turned out to be 2.7 h, the “Plasma clearance Cl” value was 5.5 mL/min/kg and the Vdz is listed as 1.3 L/kg. In addition, the C0 in series [3] (i.v. 2.5 mg/kg, 20% HP-β-CD solution) turned out to be 2929 ng/mL. In addition, the Oral bioavailability in series [3] (p.o. 10 mg/kg vs i.v. 2.5 mg/kg) amounted to 72%. Also, in series [3] (p.o. 10 mg/kg), the AUC0-inf was 21394 ng·h/mL, the Cmax came out at 2950 ng/mL, the “Half life (t1/2)” value came out at 3.2 h and the Tmax was determined as 2.0 h. Moreover, the “STA + 10% HS (361.169) IC90” value in series [4] is 0.19 µg/mL.

The values above are taken from patent publication US9617262B2, “Antibacterial cyclopental[C]pyrrole substituted 3,4-dihydro-1H-[1,8]naphthyridinones” (Janssen Sciences Ireland UC, priority 2011, dated 2017).
